Laboratory results published in patent US6893821B2, “Agents that modulate DNA-PK activity and methods of use thereof” (The Regents of the University of California, priority 2000, dated 2005).
“Also recorded” adds a separate entry of the source.

What was measured:
[1] = system: IL-6, IL-12 message in liver; assay: RT-PCR for IL-6 and IL-12 message in livers of mice injected i.v. with ODN; format: in vivo; conditions: mice i.v. 200 μl (1 μg/μl in PBS) of ss or ds ODN; 2.5 hours
[2] = system: bone marrow derived macrophages (BMDM); conditions: Martin-Orozco et al. (1999); cited from earlier work
[3] = target: T1, Ku antigen (Ku70/Ku80 heterodimer) (Mus musculus, UniProt P23475+P27641); assay: EMSA inhibition study: cold ODN vs [32P]-labeled ds-ISS-ODN binding to Ku (affinity column fraction 20)
T1 construct: from tissue; host or cells: mouse liver (BALB/c)
T1 sequence (P23475 2-608 limits assumed): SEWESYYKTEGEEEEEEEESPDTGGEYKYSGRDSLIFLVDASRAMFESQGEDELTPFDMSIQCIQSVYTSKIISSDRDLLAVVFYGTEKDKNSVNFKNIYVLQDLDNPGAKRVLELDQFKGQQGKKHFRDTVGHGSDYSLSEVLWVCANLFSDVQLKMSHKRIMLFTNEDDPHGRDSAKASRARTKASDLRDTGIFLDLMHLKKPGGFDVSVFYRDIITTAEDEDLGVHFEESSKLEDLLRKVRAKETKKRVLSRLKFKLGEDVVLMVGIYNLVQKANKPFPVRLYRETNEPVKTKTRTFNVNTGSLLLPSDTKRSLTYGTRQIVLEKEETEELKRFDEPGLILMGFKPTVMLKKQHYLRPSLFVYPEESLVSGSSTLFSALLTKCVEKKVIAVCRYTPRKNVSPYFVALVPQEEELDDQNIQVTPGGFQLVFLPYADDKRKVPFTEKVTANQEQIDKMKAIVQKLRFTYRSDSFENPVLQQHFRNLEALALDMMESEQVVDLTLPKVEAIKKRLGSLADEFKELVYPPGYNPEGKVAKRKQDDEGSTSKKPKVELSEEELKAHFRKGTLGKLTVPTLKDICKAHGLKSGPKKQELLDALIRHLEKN
T1 sequence (P27641 whole entry): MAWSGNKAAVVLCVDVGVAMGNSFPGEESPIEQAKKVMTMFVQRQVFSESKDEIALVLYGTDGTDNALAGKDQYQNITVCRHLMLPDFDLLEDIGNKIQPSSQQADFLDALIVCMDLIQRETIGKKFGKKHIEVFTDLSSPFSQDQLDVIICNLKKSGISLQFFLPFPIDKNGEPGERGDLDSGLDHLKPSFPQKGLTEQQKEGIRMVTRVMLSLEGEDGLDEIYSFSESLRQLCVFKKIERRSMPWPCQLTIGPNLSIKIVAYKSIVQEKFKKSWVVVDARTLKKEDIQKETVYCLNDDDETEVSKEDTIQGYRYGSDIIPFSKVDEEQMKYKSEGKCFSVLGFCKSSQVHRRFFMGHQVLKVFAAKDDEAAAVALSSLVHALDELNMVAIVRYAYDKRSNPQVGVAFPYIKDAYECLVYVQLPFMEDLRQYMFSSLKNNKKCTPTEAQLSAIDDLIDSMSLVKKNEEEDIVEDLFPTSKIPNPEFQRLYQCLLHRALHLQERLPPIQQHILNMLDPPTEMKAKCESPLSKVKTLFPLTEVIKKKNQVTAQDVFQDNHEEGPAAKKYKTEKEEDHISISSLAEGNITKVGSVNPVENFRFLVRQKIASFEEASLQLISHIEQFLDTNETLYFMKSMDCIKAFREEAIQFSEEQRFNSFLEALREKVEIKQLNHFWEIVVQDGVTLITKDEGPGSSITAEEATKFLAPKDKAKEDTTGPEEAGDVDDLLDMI
Method: Purification of the ISS binding protein was accomplished by sequential ion exchange, heparin and ISS-ODN affinity chromatography, as follows. Due to the relative small tissue weight per spleen, liver lysate was used after confirming its reactivity to in vivo ISS injection, as described above. Crude liver extracts from 220 mice (BALB/c, Jackson Lab., Bar Harbour, Me.) or 15 New Zealand White rabbits (Simunek, Vista, Calif.) were prepared in homogenization buffer (20 mM HEPES, pH 7.6, 250 mM KCl, 0.1 mM EDTA, 0.5 mM EGTA, 20% glycerol) with 250 mM KCl and protease and phosphatase inhibitors and then centrifuged at 100,000×g for 1.5 hours at 4° C. The supernatant (400 ml) was filtered and loaded onto a Porous 20 QE column (17 ml, Pharmacia). Two μl (10 μg) of each fraction were used in a gel retardation assay to identify the location of proteins containing DNA binding activity using [^32P]-labeled ds-ISS-ODN as a probe. Fractions containing ISS-ODN binding activity were pooled (450 ml), buffered exchanged to low salt (50 mM KCl) and loaded onto a Heparin column (2 ml). The active fractions were subsequently loaded onto a 2 ml ds-ISS-ODN affinity column [CNBr-activated Sepharose 4B (Pharmacia) coupled to 320 μg of ds-ISS-ODNs with the sequence 5′-[…]-3′; SEQ ID NO: 21]. The column was washed with 8 ml of homogenization buffer containing 50 mM KCl and the bound proteins were eluted with a 20 ml linear gradient of 50 mM to 1.55 M KCl. One-ml fractions were collected and 2 μl of each were used to test for DNA binding activity. The active fractions were concentrated, separated by SDS-PAGE and stained with Coomassie Blue. The appearance of two bands with estimated molecular weights of 70 KDa and 80 KDa correlated with the DNA binding activity. Sequence analysis (Harvard Microsequencing Facility) of peptides derived from the two bands identified Ku70 and Ku80, respectively.
Mouse liver extracts were purified through anion (QE), heparin and ISS-based affinity chromatography, as described above. Two μl of each fraction (10 μg) were incubated with [^32 P]-labeled ds-ISS-ODN at 4° C. for 30 minutes. The samples were separated on a 5% acrylamide gel and the protein-DNA complexes were detected by autoradiography. […] The active fractions were separated by sodium dodecyl sulfate-polyacrylamide gel electrophoresis (SDS-PAGE), stained with Coomassie blue and micro-sequenced.
To verify the binding specificity of the Ku protein to ISS-ODN, inhibition studies were performed using cold ss or ds ISS or mutated (M, i.e., control) ODNs. Ten μg of fraction 20 from the affinity column were incubated with [^32P]-labeled ISS-ODN in the presence of unlabeled (0.1, 0.2 and 0.4 μg, respectively) ss-ISS-ODN (lanes 3-5), ds-ISS-ODN (lanes 7-9), ss-M-ODN (lanes 11-13) or ds-M-ODN (lanes 15-17).

IκB kinase (IKK) complex = assay: IKK kinase assay on IKK complex immunoprecipitated from treated BMDM (IκBα N-terminus substrate); format: cell-based, mice
Method: Kinase assays and immunoblotting were performed according to Li et al. ((1999) J. Exp. Med. 189:1839-1845). Briefly, BMDM were treated with ISS-ODN (5 μg/ml), M-ODN (5 μg/ml) on ps and po backbones as indicated, LPS-free bacterial DNA or methylated bacterial DNA (5 μg/ml), LPS-free calf thymus DNA (5 μg/ml), LPS (10 μg/ml) or TNFα (10 ng/ml) for the indicated time periods. Cell lysates were prepared and normalized by immunoblotting (IB) with anti-IKKα polyclonal antibodies (Santa Cruz, Santa Cruz Biotech Inc., Calif.), anti-IKKβ polyclonal antbodies (Santa Cruz) or anti-DNA-PKcs monoclonal antibodies (NeoMarker, Calif.). IκB kinase (IKK) complex or DNA-PK complex from 100 μg of the lysates were immunoprecipitated by anti-IKKα or by anti-DNA-PKcs antibodies. The kinase activities (KA) were determined by a kinase assay using the N-terminus of IκBα (for IKK) or the N-terminus of p53 (for DNA-PK) as a substrate as previously described. Wang et al. (1992) Proc. Natl. Acad. Sci. USA 89:4231-4235; Li et al.(1999), supra; and Hammarsten et al. (2000) J. Biol. Chem. 275:1541-1545.

interaction of Ku with ODN [3]: specific interaction
IKK activation, wt vs ATM-deficient BMDM (IκB kinase (IKK) complex; ATM-deficient BMDM): no differences were observed
IKK activation (IκB kinase (IKK) complex; DNA-PKcs-/- BMDM as compared to wt): little increase in IKK activity
IKK activation (IκB kinase (IKK) complex; IKKβ-/- Tnfr-/- BMDM (absence of IKKβ)): prevented
IKK activation (IκB kinase (IKK) complex; wt BMDM): robust IKK activation
duration of IKK activation (IκB kinase (IKK) complex; wt BMDM): about 4 hrs
time of maximal IKK activation post incubation (IκB kinase (IKK) complex; wt BMDM): 30 min
ISS-ODN concentration of optimal IKK activation (IκB kinase (IKK) complex; wt BMDM (FIG. 5B)): 0.65 µg/mL
Substance: 5′-TGACTGTGAACGTTCGAGATGA-3′ [ISS-ODN]
IL-6 and IL-12 message in liver (RT-PCR) [1]: readily detected; also recorded: cytokine induction
IL-6 and IL-12 secretion [2]: high levels
